Where two headings read alike, the source gives them in different places.
Columns and labels:
[1] = test system: adenosine uptake into HeLa cells; experiment: [3H]Adenosine uptake assay in HeLa cells; format: cell-based; conditions: [3H]adenosine accumulation in HeLa cells, compound range 10 μM to 0.032 nM, read-out: ADU inhibition IC50
Summary of the method: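 IC50 came from a 4-parameter fit of counts per second over a ten-point, 1:3 titration (final 10 µM down to […]). Compound was applied 30 min at ambient temperature in HBSS/5% FBS before a 500 nM [3H]adenosine solution was added; uptake ran 60 min, read by Cytostar-T proximity scintillation.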

[2] = molecular target: BTK enzyme (recombinant full-length BTK, hBTK) (Homo sapiens (Human), UniProt Q06187); experiment: BTK enzymatic activity LANCE TR-FRET assay; format: biochemical; conditions: 50 pM hBTK, 25 μM ATP, 2 μM biotin-A5-peptide; compound range 1 μM to 0.017 nM; read-out: BTK binding IC50
Chain of BTK enzyme (recombinant full-length BTK, hBTK) (Q06187 whole entry): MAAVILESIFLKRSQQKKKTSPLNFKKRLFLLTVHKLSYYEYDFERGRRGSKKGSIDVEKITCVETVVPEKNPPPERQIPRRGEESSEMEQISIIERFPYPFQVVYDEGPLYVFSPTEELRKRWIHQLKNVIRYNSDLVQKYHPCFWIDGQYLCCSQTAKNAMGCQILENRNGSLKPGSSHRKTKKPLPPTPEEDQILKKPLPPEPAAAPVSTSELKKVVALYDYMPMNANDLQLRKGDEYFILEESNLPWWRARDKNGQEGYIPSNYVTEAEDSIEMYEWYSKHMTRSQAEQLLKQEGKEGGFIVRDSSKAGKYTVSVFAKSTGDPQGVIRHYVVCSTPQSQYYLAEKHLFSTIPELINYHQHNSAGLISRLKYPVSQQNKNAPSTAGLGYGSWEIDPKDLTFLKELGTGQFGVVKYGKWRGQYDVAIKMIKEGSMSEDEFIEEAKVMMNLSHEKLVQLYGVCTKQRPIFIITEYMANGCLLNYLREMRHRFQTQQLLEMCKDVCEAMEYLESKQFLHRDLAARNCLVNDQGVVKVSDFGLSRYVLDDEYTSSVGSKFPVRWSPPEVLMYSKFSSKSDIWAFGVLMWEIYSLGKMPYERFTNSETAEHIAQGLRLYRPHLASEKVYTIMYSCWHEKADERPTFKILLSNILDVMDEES

SMILES | IC50 ([1]; Homo sapiens, HeLa) | IC50 [2] | IC50 [1]
C[C@](O)(c1ccc(-c2nc([C@@H]3CC[C@H]4CCC(=O)N4C3)n3ccnc(N)c23)cc1)c1cc(C(F)(F)F)ccn1 [Example 36] | 704 nM | 1000 nM | 
C[C@@](O)(c1ccc(-c2nc([C@@H]3CC[C@H]4CCC(=O)N4C3)n3ccnc(N)c23)cc1)c1cncc(C(F)(F)F)c1 [Example 136, (6R,8aS)-6-[8-amino-1-(4-{(1R)-1-hydroxy-1-[5-(trifluoromethyl)pyridin-3-yl]ethyl}phenyl)imidazo [1,5-a]pyrazin-3-yl]hexahydroindolizin-3(2H)-one] | 4620 nM | 87.6 nM | 
COc1cc(C(O)(c2cccc(C(F)(F)F)c2)C(F)(F)F)ccc1-c1nc([C@@H]2CC[C@H]3CCC(=O)N3C2)n2ccnc(N)c12 (single isomer, unassigned) [Example 10] |  | 496 nM | 2160 nM
CC(O)(c1cccc(C(F)F)c1)c1ccc(-c2nc([C@@H]3CC[C@H]4CCC(=O)N4C3)n3c(F)cnc(N)c23)c(F)c1 (stereo partly drawn) [Example 208, (6R,8aS)-6-(8-amino-1-(4-{1-[3-(difluoromethyl)phenyl]-1-hydroxyethyl}-2-fluorophenyl)-5-fluoroimidazo[1,5-a]pyrazin-3-yl]hexahydroindolizin-3(2H)-one] |  | 1.6 nM | 5410 nM
C[C@](O)(c1ccc(-c2nc([C@@H]3CC[C@H]4CCC(=O)N4C3)n3c(Cl)cnc(N)c23)cc1)c1cccc(CC(F)(F)F)c1 [Example 122, (6R,8aS)-6-[8-amino-5-chloro-1-(4-{(1S)-1-hydroxy-1-(3-(2,2,2-trifluoroethyl)phenyl]ethyl}phenyl)imidazo[1,5-a]pyrazin-3-yl]hexahydroindolizin-3(2H)-one] | 966 nM | 2.7 nM | 
CCc1cccc([C@@](C)(O)c2ccc(-c3nc([C@@H]4CC[C@H]5CCC(=O)N5C4)n4ccnc(N)c34)cc2)c1 [Example 92, (6R,8aS)-6-(8-amino-1-{4-[(1S)-1-(3-ethylphenyl)-1-hydroxyethyl]phenyl}imidazo[1,5-a]pyrazin-3-yl)hexahydroindolizin-3(2H)-one] | 619 nM | 0.48 nM | 

The remaining lines, values ahead:

IC50 ([1]; Homo sapiens, HeLa) | IC50 [2] | IC50 [1] | SMILES
2300 nM | 19.7 nM |  | C[C@@](O)(c1ccc(-c2nc([C@@H]3CC[C@H]4CCCN4C3)n3ccnc(N)c23)cc1)c1cccc(C(F)(F)F)c1 [Example 62, (1R)-1-(4-{8-amino-3-[(6R,8aS)-octahydroindolizin-6-yl]imidazo[1,5-a]pyrazin-1-yl}phenyl)-1-[3-(trifluoromethyl)phenyl] ethanol]
 | 169 nM | 1560 nM | CC1(C)CC(=O)N2C[C@@H](c3nc(-c4ccc([C@@](C)(O)c5cccc(C(F)(F)F)c5)cc4)c4c(N)nccn34)CC[C@@H]21 [Example 163, (6S,8aR)-6-[8-amino-1-(4-{(1R)-1-hydroxy-1-[3-(trifluoromethyl)phenyl]ethyl}phenyl)imidazo [1,5-a]pyrazin-3-yl]-1,1-dimethylhexahydroindolizin-3(2H)-one]
1760 nM | 0.27 nM |  | CC(C)(C)c1cccc([C@](C)(O)c2ccc(-c3nc([C@@H]4CC[C@H]5CCC(=O)N5C4)n4ccnc(N)c34)cc2)c1 [Example 40, (6R,8aS)-6-(8-amino-1-{4-[(1R)-1-(3-tert-bulylphenyl)-1-hydroxyethyl]phenyl}imidazo[1,5-a]pyrazin-3-yl)hexahydroindolizin-3(2H)-one]
2410 nM | 33.1 nM |  | CC(C)N1CC(=O)N2C[C@H](c3nc(-c4ccc([C@@](C)(O)c5cccc(C(F)(F)F)c5)cc4)c4c(N)nccn34)CC[C@H]2C1 [Example 119, (7R,9aS)-7-(8-amino-1-(4-{(1R)-1-hydroxy-1-[3-(trifluoromethyl)phenyl]ethyl}phenyl)imidazo [1,5-a]pyrazin-3-yl]-2-(1-methylethyl)octahydro-4H-pyrido[1,2-a]pyrazin-4-one]

From US10214546B2, “Btk inhibitors” (MERCK SHARP & DOHME CORP., priority 2014, dated 2019)
